The values below come from ChEMBL document CHEMBL1155740, “Dicerandrols, new antibiotic and cytotoxic dimers produced by the fungus Phomopsis longicolla isolated from an endangered mint” (2001).

Test [1] deals with Saccharomyces cerevisiae. Nature of the test: Antifungal activity against Saccharomyces cerevisiae at 300 ug/disk. Type of test: functional, organism-based.
Test [2] relates to HCT-116. As to the kind of experiment: Cytotoxicity against human HCT116 cells after 72 hrs. It is filed as functional.
For test [3], the system named is Bacillus subtilis. As to the kind of experiment: Antibacterial activity against Bacillus subtilis at 100 ug/disk after overnight incubation by agar diffusion method. It is filed as functional. The following applies: read-out: IZ. In general terms: A growth-free zone around the sample is the usual read-out of agar diffusion tests.
Test [4] relates to Geotrichum candidum. Nature of the test: Antifungal activity against Geotrichum candidum at 300 ug/disk. It is filed as functional, organism-based.
In test [5] the test system is Staphylococcus aureus. As to the kind of experiment: Antibacterial activity against Staphylococcus aureus at 100 ug/disk after overnight incubation by agar diffusion method. It is filed as functional. The following applies: read-out: IZ.
The test system of test [6] is A549. As to the kind of experiment: Cytotoxicity against human A549 cells after 72 hrs. It is filed as functional.
Test [7] relates to Staphylococcus aureus. As to the kind of experiment: Antibacterial activity against Staphylococcus aureus at 30 ug after overnight incubation by agar diffusion method. The following applies: read-out: IZ. It is filed as functional.
The subject of test [8] is Bacillus subtilis. As to the kind of experiment: Antibacterial activity against Bacillus subtilis at 30 ug after overnight incubation by agar diffusion method. Type of test: functional, organism-based.

Activity calls are given as the source filed them. The calls are words filed in the database; no cut-off is given here.

Turning to `CC(=O)O[C@@H]1[C@H](C)CC(O)=C2C(=O)c3c(ccc(-c4ccc5c(c4O)C(=O)C4=C(O)C[C@@H](C)[C@@H](OC(C)=O)[C@@]4(CO)O5)c3O)O[C@@]21CO` [DICERANDROL A], the outcome in test [1] and in test [4] was inactive. Besides, the IC100 in test [2] and in test [6] was 7 µg/mL each time. The zone of inhibition at 100 µg/disc stood at 11 mm in test [3] and 10.8 mm in test [5].

For `CC(=O)OC[C@]12Oc3ccc(-c4ccc5c(c4O)C(=O)C4=C(O)C[C@@H](C)[C@@H](OC(C)=O)[C@@]4(CO)O5)c(O)c3C(=O)C1=C(O)C[C@@H](C)[C@H]2OC(C)=O` [DICERANDROL B], the outcome in test [1] and in test [4] was inactive. The IC100 in test [2] and in test [6] was 1.8 µg/mL throughout. The zone of inhibition at 100 µg/disc in test [3] is 9.5 mm; in test [5], 8.5 mm.

`CC(=O)OC[C@]12Oc3ccc(-c4ccc5c(c4O)C(=O)C4=C(O)C[C@@H](C)[C@@H](OC(C)=O)[C@@]4(COC(C)=O)O5)c(O)c3C(=O)C1=C(O)C[C@@H](C)[C@H]2OC(C)=O` [DICERANDROL C]: the outcome in test [1] and in test [4] was inactive. The values for the IC100 in test [2] and in test [6] were 7 µg/mL and 1.8 µg/mL, respectively. Further, the results for the zone of inhibition at 100 µg/disc in test [3] and in test [5] were 8 mm and 7 mm, respectively.

For `COc1cc([C@@H]2c3cc4c(cc3[C@@H](O[C@@H]3O[C@@H]5CO[C@@H](C)O[C@H]5[C@H](O)[C@H]3O)[C@H]3COC(=O)[C@H]23)OCO4)cc(OC)c1O` [ETOPOSIDE], the IC100 in test [2] is 125 µg/mL; in test [6], 30 µg/mL.

As for `NC[C@@H]1O[C@H](O[C@H]2[C@@H](O)[C@H](O[C@@H]3[C@@H](O)[C@H](N)C[C@H](N)[C@H]3O[C@H]3O[C@H](CN)[C@@H](O)[C@H](O)[C@H]3N)O[C@@H]2CO)[C@H](N)[C@@H](O)[C@@H]1O` [FRAMYCETIN], the zone of inhibition at 30 µg/disc in test [7] was determined as 9 mm.

Compound NYSTATIN came in with an inhibition zone (IZ) in test [8] of 12 mm.
